Where “and” joins values, the source holds several entries; their conditions need not be identical. Identical values can stand only once.
Assays:
Format in all cases: functional
Details in all cases: Enterobacteria phage phiX174
Nucleic Acid [1] = assay: Percent DNA cleavage induced by administering the compound (0.1 uM) within 24 hr to form RfI DNA was determined by using phiX174 bacteriophage DNA
Nucleic Acid [2] = assay: Percent DNA cleavage induced by administering the compound (0.1 uM) within 24 hr to form RfII DNA was determined by using phiX174 bacteriophage DNA
Nucleic Acid [3] = assay: Percent DNA cleavage induced by administering the compound (0.1 uM) within 24 hr to form RfIII DNA was determined by using phiX174 bacteriophage DNA
Nucleic Acid [4] = assay: Percent DNA cleavage induced by administering the compound (0.1 uM) within 48 hr to form RfI DNA was determined by using phiX174 bacteriophage DNA
Nucleic Acid [5] = assay: Percent DNA cleavage induced by administering the compound (0.1 uM) within 48 hr to form RfII DNA was determined by using phiX174 bacteriophage DNA
Nucleic Acid [6] = assay: Percent DNA cleavage induced by administering the compound (0.1 uM) within 48 hr to form RfIII DNA was determined by using phiX174 bacteriophage DNA
Nucleic Acid [7] = assay: Percent DNA cleavage induced by administering the compound (0.1 uM) within 12 hr to form RfI DNA was determined by using phiX174 bacteriophage DNA
Nucleic Acid [8] = assay: Percent DNA cleavage induced by administering the compound (0.1 uM) within 12 hr to form RfII DNA was determined by using phiX174 bacteriophage DNA
Nucleic Acid [9] = assay: Percent DNA cleavage induced by administering the compound (0.1 uM) within 12 hr to form RfIII DNA was determined by using phiX174 bacteriophage DNA
Nucleic Acid [10] = assay: Percent DNA cleavage induced by administering the compound (1.0 uM) within 12 hr to form RfI DNA was determined by using phiX174 bacteriophage DNA
Nucleic Acid [11] = assay: Percent DNA cleavage induced by administering the compound (1.0 uM) within 12 hr to form RfII DNA was determined by using phiX174 bacteriophage DNA
Nucleic Acid [12] = assay: Percent DNA cleavage induced by administering the compound (1.0 uM) within 12 hr to form RfIII DNA was determined by using phiX174 bacteriophage DNA
Nucleic Acid [13] = assay: Percent DNA cleavage induced by administering the compound within 12 hr to form RfI DNA was determined by using phiX174 bacteriophage DNA
Nucleic Acid [14] = assay: Percent DNA cleavage induced by administering the compound (1.0 uM) within 12 hr to form RfIII DNA was determined by using phiX174 bacteriophage DNA by using phiX174 bacteriophage DNA
Nucleic Acid [15] = assay: Percent DNA cleavage induced by administering the compound (1.0 uM) within 48 hr to form RfI DNA was determined by using phiX174 bacteriophage DNA
Nucleic Acid [16] = assay: Percent DNA cleavage induced by administering the compound (1.0 uM) within 48 hr to form RfII DNA was determined by using phiX174 bacteriophage DNA
Nucleic Acid [17] = assay: Percent DNA cleavage induced by administering the compound (1.0 uM) within 48 hr to form RfIII DNA was determined by using phiX174 bacteriophage DNA
Nucleic Acid [18] = assay: Percent DNA cleavage induced by administering the compound (0.1 uM) within 24hto form RfIII DNA was determined by using phiX174 bacteriophage DNA
Nucleic Acid [19] = assay: Percent DNA cleavage induced by administering the compound (0.1 uM), additive 1000 uM distamycin A within 24 hr to form RfI DNA was determined by using phiX174 bacteriophage DNA
Nucleic Acid [20] = assay: Percent DNA cleavage induced by administering the compound (0.1 uM), additive 1000 uM distamycin A within 24 hr to form RfII DNA was determined by using phiX174 bacteriophage DNA
Nucleic Acid [21] = assay: Percent DNA cleavage induced by administering the compound (0.1uM), additive 10 uM distamycin A within 24 hr to form RfI DNA was determined by using phiX174 bacteriophage DNA
Nucleic Acid [22] = assay: Percent DNA cleavage induced by administering the compound (0.1 uM), additive 10 uM distamycin A within 24 hr to form RfII DNA was determined by using phiX174 bacteriophage DNA
Nucleic Acid [23] = assay: Percent DNA cleavage induced by administering the compound (0.1 uM), additive 10 uM distamycin A within 24 hr to form RfIII DNA was determined by using phiX174 bacteriophage DNA
Nucleic Acid [24] = assay: Percent DNA cleavage induced by administering the compound (0.1 uM), additive Ar/N2 within 12 hr to form RfI DNA was determined by using phiX174 bacteriophage DNA
Nucleic Acid [25] = assay: Percent DNA cleavage induced by administering the compound (0.1 uM), additive Ar/N2 within 12 hr to form RfII DNA was determined by using phiX174 bacteriophage DNA
Nucleic Acid [26] = assay: Percent DNA cleavage induced by administering the compound (0.1 uM), additive Ar/N2 within 12 hr to form RfIII DNA was determined by using phiX174 bacteriophage DNA
Nucleic Acid [27] = assay: Percent DNA cleavage induced by administering the compound (0.1 uM), additive 1000 uM distamycin A within 24 hr to form RfIII DNA was determined by using phiX174 bacteriophage DNA
Nucleic Acid [28] = assay: Percent DNA cleavage induced by administering the compound (0.1 uM), additive 100 uM distamycin A within 24 hr to form RfI DNA was determined by using phiX174 bacteriophage DNA
Nucleic Acid [29] = assay: Percent DNA cleavage induced by administering the compound (0.1 uM), additive 100 uM distamycin A within 24 hr to form RfII DNA was determined by using phiX174 bacteriophage DNA
Nucleic Acid [30] = assay: Percent DNA cleavage induced by administering the compound (0.1 uM), additive 100 uM distamycin A within 24 hr to form RfIII DNA was determined by using phiX174 bacteriophage DNA
Nucleic Acid [31] = assay: Percent DNA cleavage induced by administering the compound (0.1 uM), additive 10 mM aliquots of metal chlorides M2+/3- within 12 hr to form RfI DNA was determined by using phiX174 bacteriophage DNA
Nucleic Acid [32] = assay: Percent DNA cleavage induced by administering the compound (0.1 uM), additive 10 mM aliquots of metal chlorides M2+/3- within 12 hr to form RfII DNA was determined by using phiX174 bacteriophage DNA
Nucleic Acid [33] = assay: Percent DNA cleavage induced by administering the compound (0.1 uM), additive 10 mM aliquots of metal chlorides M2+/3- within 12 hr to form RfIII DNA was determined by using phiX174 bacteriophage DNA

Nc1cccc(C(=O)Nc2cc(NC(=O)c3ccccc3)cc(C(=O)NCCNC(=O)c3cc(NC(=O)c4ccccc4)cc(NC(=O)c4cccc(N)c4)c3)c2)c1
Cleavage (Nucleic Acid [1]): 35%
Cleavage (Nucleic Acid [2]): 65%
Cleavage (Nucleic Acid [3]): 0%
Cleavage (Nucleic Acid [4]): 7%
Cleavage (Nucleic Acid [5]): 93%
Cleavage (Nucleic Acid [6]): 0%

Nc1cccc(C(=O)Nc2cc(NC(=O)c3ccccc3)cc(C(=O)NCCCCCCNC(=O)c3cc(NC(=O)c4ccccc4)cc(NC(=O)c4cccc(N)c4)c3)c2)c1
Cleavage (Nucleic Acid [7]): 38%
Cleavage (Nucleic Acid [8]): 62%
Cleavage (Nucleic Acid [9]): 0%

CCOC(=O)c1cc(NC(=O)c2cc(N)cc(OC)c2)cc(NC(=O)c2cccc([N+](=O)[O-])c2)c1
Cleavage (Nucleic Acid [10]): 11%
Cleavage (Nucleic Acid [11]): 89%
Cleavage (Nucleic Acid [12]): 0%

Nc1cccc(C(=O)Nc2cc(NC(=O)c3ccccc3)cc(C(=O)NCCCCNC(=O)c3cc(NC(=O)c4ccccc4)cc(NC(=O)c4cccc(N)c4)c3)c2)c1
Cleavage (Nucleic Acid [7]): 37%
Cleavage (Nucleic Acid [8]): 63%
Cleavage (Nucleic Acid [9]): 0%

CCOC(=O)c1cc(N)cc([N+](=O)[O-])c1
Cleavage (Nucleic Acid [13]): 90%
Cleavage (Nucleic Acid [11]): 10%
Cleavage (Nucleic Acid [14]): 0%

CCOC(=O)c1cc(NC(=O)c2cccc(N)c2)cc(NC(=O)c2cccc([N+](=O)[O-])c2)c1
Cleavage (Nucleic Acid [15]): 0%
Cleavage (Nucleic Acid [16]): 75%
Cleavage (Nucleic Acid [17]): 25%
Cleavage (Nucleic Acid [10]): 1%
Cleavage (Nucleic Acid [11]): 99%
Cleavage (Nucleic Acid [12]): 0%

CCOC(=O)c1cc(NC(=O)c2cccc([N+](=O)[O-])c2)cc(NC(=O)c2cc(N)cc([N+](=O)[O-])c2)c1
Cleavage (Nucleic Acid [10]): 44%
Cleavage (Nucleic Acid [11]): 56%
Cleavage (Nucleic Acid [12]): 0%

COc1cc(N)cc(C(=O)Nc2cc(NC(=O)c3ccccc3)cc(C(=O)NCCNC(=O)c3cc(NC(=O)c4ccccc4)cc(NC(=O)c4cc(N)cc(OC)c4)c3)c2)c1
Cleavage (Nucleic Acid [18]): 0% and 1%

Nc1cccc(C(=O)Nc2cc(NC(=O)c3ccccc3)cc(C(=O)NCNC(=O)c3cc(NC(=O)c4ccccc4)cc(NC(=O)c4cccc(N)c4)c3)c2)c1
Cleavage (Nucleic Acid [1]): 0%
Cleavage (Nucleic Acid [2]): 100%
Cleavage (Nucleic Acid [3]): 0%

Nc1cccc(C(=O)Nc2cc(NC(=O)c3ccccc3)cc(C(=O)NCCCNC(=O)c3cc(NC(=O)c4ccccc4)cc(NC(=O)c4cccc(N)c4)c3)c2)c1
Cleavage (Nucleic Acid [1]): 24%
Cleavage (Nucleic Acid [2]): 76%
Cleavage (Nucleic Acid [3]): 0%
Cleavage (Nucleic Acid [4]): 1%
Cleavage (Nucleic Acid [5]): 99%
Cleavage (Nucleic Acid [6]): 0%
Cleavage (Nucleic Acid [19]): 95%
Cleavage (Nucleic Acid [20]): 5%
Cleavage (Nucleic Acid [21]): 25%
Cleavage (Nucleic Acid [22]): 75%
Cleavage (Nucleic Acid [23]): 0%
Cleavage (Nucleic Acid [24]): 26%
Cleavage (Nucleic Acid [25]): 74%
Cleavage (Nucleic Acid [26]): 0%
Cleavage (Nucleic Acid [27]): 0%
Cleavage (Nucleic Acid [28]): 65%
Cleavage (Nucleic Acid [29]): 35%
Cleavage (Nucleic Acid [30]): 0%
Cleavage (Nucleic Acid [31]): 27%
Cleavage (Nucleic Acid [32]): 73%
Cleavage (Nucleic Acid [33]): 0%

Nc1cc(C(=O)Nc2cc(NC(=O)c3ccccc3)cc(C(=O)NCCNC(=O)c3cc(NC(=O)c4ccccc4)cc(NC(=O)c4cc(N)cc([N+](=O)[O-])c4)c3)c2)cc([N+](=O)[O-])c1
Cleavage (Nucleic Acid [1]): 36%
Cleavage (Nucleic Acid [2]): 64%
Cleavage (Nucleic Acid [3]): 0%
Cleavage (Nucleic Acid [4]): 10%
Cleavage (Nucleic Acid [5]): 90%
Cleavage (Nucleic Acid [6]): 0%

Nc1cccc(C(=O)Nc2cc(NC(=O)c3ccccc3)cc(C(=O)NCCCCCNC(=O)c3cc(NC(=O)c4ccccc4)cc(NC(=O)c4cccc(N)c4)c3)c2)c1
Cleavage (Nucleic Acid [1]): 35%
Cleavage (Nucleic Acid [2]): 65%
Cleavage (Nucleic Acid [3]): 0%
